Assay results published in article PMC4149317 (Acta biomaterialia, 2013).
Blank lines part the entries; values can stand above or below the substance they belong to.

What was measured:
[1] = ref [27], cited from earlier work
VEGF (rhVEGF165) [2] = target: T1, VEGF (rhVEGF165) (Homo sapiens, UniProt P15692); experiment: VEGF binding to PEG microspheres in serum-containing and albumin-only solutions; settings: 0.4% peptide density, albumin-only solution (1.25 wt.% BSA in PBS); p < 0.05 (Fig. 2D)
T1 sequence (P15692 1-191 isoform P15692-4): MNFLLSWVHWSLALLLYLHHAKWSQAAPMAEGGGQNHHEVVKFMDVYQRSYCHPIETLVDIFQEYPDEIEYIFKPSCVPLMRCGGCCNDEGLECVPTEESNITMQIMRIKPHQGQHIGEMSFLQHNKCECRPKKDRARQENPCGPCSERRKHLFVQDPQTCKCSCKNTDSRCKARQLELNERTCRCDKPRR

VEGF = settings: soluble VBP vs soluble VBPWT; ref [27]; cited from earlier work
endothelial cells = settings: VEGF supplement to endothelial cells; ref [30]; cited from earlier work
VEGF (rhVEGF165) [3] = target: T1, VEGF (rhVEGF165); experiment: Heparin modulation of VEGF binding to microspheres

KD, VBP-VEGF vs VBPWT-VEGF, albumin-only solution (VEGF (rhVEGF165) [2]): exhibited a lower KD than VBPWT-VEGF
Substance: CEFdAdYdLdIDFNWEYPASK [VBP]
Stability against protease-mediated degradation ([1]; four D-substituted amino acids vs wild-type): enhanced peptide stability against protease-mediated degradation
Serum stability of soluble peptide ([1]; soluble VBP vs soluble VBPWT): higher than that of soluble VBPWT
VEGF binding affinity of soluble peptide (VEGF): higher than that of soluble VBPWT

Substance: VEGF
Endothelial proliferation below 1 ng ml^−1 VEGF (endothelial cells): proliferation is decreased at VEGF concentrations below 1 ng ml^−1
VEGF concentration of maximal endothelial proliferation (endothelial cells): 1 to 1.2 ng/mL

Effect of soluble heparin on specificity of VEGF binding (VEGF (rhVEGF165) [3]; 10 µg ml^−1 UFH in albumin-containing solution, 1.6% peptide density (Fig. 3C)): reduced non-specific binding of VEGF
Effect of soluble heparin on VEGF binding affinity (VEGF (rhVEGF165) [3]; physiologic level of soluble heparin, UFH 10 µg ml^−1): increased VEGF binding affinity
Substance: heparin
